Results taken from patent publication US7772001B2, “Directed differentiation of embryonic stem cells into an endoderm cell” (Yissum Research Development Company Of the Hebrew …, priority 2000, dated 2010).

Tests used:
Assay type in all cases: cell-based
[1] = tested on: human differentiated embryonic (DE) cells; assay: RT-PCR of cell specific genes in DE cells treated with growth factors; conditions: for blood formation / differentiation into ectodermal cells / differentiation into kidney cells / differentiation into mesodermal cells / differentiation into skin cells / differentiation of brain cells (neurons) / differentiation of heart cells / differentiation of muscle / differentiation into Mullerian duct cells / differentiation into chondrocytes / differentiation into endodermal cells / differentiation toward liver (hepatocytes) / differentiation toward pancreas (islet cells): vs control without growth factor (FIG. 4); for set of cell specific transcripts produced / expression of uro-genital marker WT-1: DE cells, 10 days with factor; for overall induction or repression of cell specific expression (FIG. 3B): at least three experiments
Procedure: (§1) Cell Culture: Human embryonic stem cells were grown on a feeder layer of mouse embryonic fibroblasts (MEF) and then transferred to gelatin coated plates and cultured further to reduce the number of murine cells in the culture. Differentiation into embryoid bodies (EBs) was initiated by transfer to Petri dishes, where the embryoid bodies remained in suspension. After 5 days, the EBs become dissociated and cells are cultured as a monolayer forming differentiated embryonic (DE) cells. This protocol allows for initial differentiation of the human embryonic stem cells as aggregates and further differentiation as a monolayer wherein cells can be exposed to exogenous growth factors. The DE cells were cultured for 10 days in the presence of 8 different growth factors: NGF, bFGF, Activin-A, TGFβ1, HGF, EGF, BMP4 and retinoic acid (RA) (FIG. 1A).
To induce formation of EBs, ES cells were transferred using trypsin/EDTA (0.1%/l mM) to plastic Petri dishes to allow their aggregation and prevent adherence to the plate. Human EBs were grown in the same culture medium, except that it lacked leukemia inhibitory factor (LIF) and bFGF. The EBs were cultured for 5 days and then dissociated and plated on tissue culture plates coated with 50 μg/ml Fibronectin (Boehringer Mannheim). The cells were grown in the presence of the following human recombinant growth factors used singly or in groups: Basic Fibroblast Growth Factor (bFGF) (Swoboda et al, 1999)—10 ng/ml (Gibco BRL); Transforming Growth Factor Beta 1 (TGFβ1) (Swoboda et al, 1999)—2 ng/ml (R&D Systems); Activin-A (Slager et al, 1993)—20 ng/ml (R&D Systems); Bone Morphogenic Protein 4 (BMP-4) (Slager et al, 1993; Bain et al, 1996)—10 ng/ml (R&D Systems); Hepatocyte Growth Factor (HGF)/Scatter Factor (Doetsch et al, 1999)—20 ng/ml (R&D Systems); Epidermal Growth Factor (EGF) (Doetsch et al, 1999)—100 ng/ml (R&D Systems); βNerve Growth Factor (NGF) (Johansson et al, 1999)—100 ng/ml (R&D Systems); Retinoic acid (RA) (Deacon et al, 1998; Peschanski et al, 1995)—1 μM (Sigma). Under these conditions the differentiated embryonic (DE) cells were grown for another 10 days. All of the examined growth factors are absent from the KnockOut™ serum replacement in which the embryonic cells were cultured.
RT-PCR Analysis: Total RNA was extracted using Atlas™ Pure Total RNA Kit (Clontech). cDNA was synthesized from 1 μg total RNA, using Atlas™ RT-for-PCR Kit (Clontech). cDNA samples were subjected to PCR amplification with DNA primers selective for the human genes. For each gene, the DNA primers were derived from different exons to ensure that the PCR product represents the specific mRNA species and not genomic DNA. PCR was performed using the Clontech Advantaq+™ RT-PCR kit and using a two-step cycle at 68° C.
Primers were synthesized for the following genes: neurofilament heavy chain (NF-H), phosphoprotein enriched in astrocytes (PEA-15), Keratin, Dopamine β Hydroxylase (DβH), Follicular Stimulating Hormone (FSH), Enolase, Myosin light polypeptide2 (myosin), Cartilage Matrix Protein (CMP), Renin, Kallikrein, Wilms Tumor 1 (WTI), β-Globin (β-Glob), δ-Globin (δ-Glob), Cardiac Actin (cACT), Albumin, α1 anti-trypsin (α1 AT), Lipase, Amylase, PDX-1, Insulin, Glucagon, Surfactant, Parathyroid Hormone (PTH), α-feto protein (αFP), Retinoic Acid Receptor type alpha (RAR), Hepatocyte Growth Factor Receptor (c-Met), Nerve Growth Factor Receptor (NGFR), Fibroblast Growth Factor Receptor type I (FGFRI), Transforming Growth Factor Receptor type II (TGFRII), Epidermal Growth Factor Receptor type (EGFR), Activin Receptor type IIB (ACTRIIB), Bone Morphogenic Protein 4 Receptor type II (BMP4RII), Octamer Binding Protein 4 (Oct 4), Glyceraldehyde 3-phosphate dehydrogenase (G3PD), β-Actin. Also incorporated by reference, see http://www.ls.huji.ac.il/˜nissimb/factors_es/primers.html-ente.
The differentiation induced by growth factors was further examined by determining the expression of a panel of 24 cell specific genes using RT-PCR. […]

[2] = tested on: human EBs (from human ES cells); assay: In situ hybridization to NF-L RNA in cells derived from dissociated EBs; conditions: for proportion of neuronal cells in the cultures (NF-L RNA): controls 21%
Procedure: (§2) In Situ Hybridization and Immunohistochemistry: EBs or their plated derivatives were fixed in 4% paraformaldehyde. In in-situ experiments, hybridization to a 50-mer 2′-O-methyl 5′-biotinylated cDNA of NF-L (SEQ ID NO:1) (CCTGCGTGCGGATGGAC […]) followed. The probes were then detected with streptavidin-conjugated alkaline phosphatase using a fluorogenic substrate (Grifman et al, 1998). For immunohistochemistry, EBs were either embedded in paraffin and sectioned at 10 μM, or stained directly on the plates. Mouse monoclonal anti-NF-II was used as a primary antibody, and was detected with Cy3-conjugated goat anti-mouse igG.
(§3) Cell Culture. Human ES cells were grown and EBs were generated as described in Example 1. Four days following initiation of aggregation growth factors were administered: retinoic acid (Sigma): 10-^7 M (Bain et al, 1995) or 10^−6 (Bain et al, 1996); TGFβ1 (Sigma): 2 ng/ml (Slager et al, 1993); βNGF (New Biotechnology, Israel): 100 ng/ml (Wobus et al, 1988). After 21 days, EBs were plated on 5 μm/cm^2 collagen treated plates, either as whole EB's, or as single cells dissociated with trypsin/EDTA. The cultures were maintained for an additional week or 2 days, respectively.
In situ hybridization and immunohistochemistry was carried out according to Example 1. RT-PCR analysis. cDNA was synthesized from total RNA and PCR performed according to Example I. Primers for GAPDH, serotonin receptors 2A and 5A (5HT2A7 5HT5A, respectively) and dopamine receptor D1 (DRD1) were purchased from Clontech. The primers for dopa decarboxylase (DDC) were: […] (SEQ ID NO:2) and […] (SEQ ID NO:3).
Differentiation was initially assayed by in-situ hybridization to neurofilament light chain (NF-L) RNA, which is expressed by both immature and fully differentiated neurons (Carden et al, 1987).

[3] = tested on: human EBs; assay: NF-H immunostaining of plated EBs, neuronal network complexity; conditions: RA treatment and plating on collagen; untreated EBs 54%
Procedure: as §2, §3
In situ hybridization and immunohistochemistry was carried out according to Example 1. […]

[4] = tested on: human differentiated embryonic (DE) cells; assay: Morphology of DE cells cultured with growth factors; conditions: several days on plastic, continuous exposure to growth factor (FIG. 1B)
Procedure: as §1
To induce formation of EBs, ES cells were transferred using trypsin/EDTA (0.1%/l mM) to plastic Petri dishes to allow their aggregation and prevent adherence to the plate. Human EBs were grown in the same culture medium, except that it lacked leukemia inhibitory factor (LIF) and bFGF. The EBs were cultured for 5 days and then dissociated and plated on tissue culture plates coated with 50 μg/ml Fibronectin (Boehringer Mannheim). […]

Molecule	blood formation [1]	differentiation into ectodermal cells [1]	differentiation into kidney cells [1]	differentiation into mesodermal cells [1]	differentiation into skin cells [1]	differentiation of brain cells (neurons) [1]	differentiation of heart cells [1]	differentiation of muscle [1]	set of cell specific transcripts produced [1]	overall induction or repression of cell specific expression (FIG. 3B) [1]	differentiation into Mullerian duct cells [1]	differentiation into chondrocytes [1]	differentiation into endodermal cells [1]	expression of uro-genital marker WT-1 [1]	differentiation toward liver (hepatocytes) [1]	differentiation toward pancreas (islet cells) [1]	cell morphology found in treated culture [4]	other results
EGF: human recombinant Epidermal Growth Factor, 100 ng/ml (NSDSECPLSHDGYCLHDGVCMYIEALDKYACNCVVGYIGERCQYRDLKWWELR; UniProt P01133 971-1023, looked up)	inhibits	allow or induce	inhibits	allow or induce	stimulate	inhibits	stimulate	permits normal levels	–	–	–	–	–	–	–	–	–	–
CC1=C(/C=C/C(C)=C/C=C/C(C)=C/C(=O)O)C(C)(C)CCC1 [RA, retinoic acid, reference compound]	–	–	–	–	–	–	–	–	–	–	–	–	–	–	–	–	–	proportion of neuronal cells in the cultures (NF-L RNA) ([2]; high concentration of RA (10^−6 M)): 52%; number of EBs containing NF-H positive neurons [3]: 76%
TGFβ1: human recombinant Transforming Growth Factor Beta 1, 2 ng/ml	inhibit	inhibit	inhibit	allow differentiation into selected mesodermal cells	–	–	–	–	relatively reduced set of specific transcripts	mostly repress or fail to direct differentiation of as many cell types	inhibit	inhibit	inhibit	–	–	–	–	effect on neuronal differentiation (NF-L RNA) ([2]; TGFβ1 2 ng/ml): no effect
NGF: human recombinant β nerve growth factor, 100 ng/ml	stimulate	allows	direct the differentiation	allows	completely inhibited	direct the differentiation	stimulate	down-regulate	induce expression of a variety of transcripts indicative of cells from all three germ layers	induces the greatest variety of cell specific gene expression	direct the differentiation	down-regulate	allows	expressed	direct the differentiation	direct the differentiation	–	expression of adrenal markers [1]: not; expression of endodermal markers [1]: induce; number of neuronal cells that develop from human embryonic cells ([2]; summary statement): enhance; proportion of neuronal cells in the cultures (NF-L RNA) ([2]; βNGF 100 ng/ml): 39%
bFGF: human recombinant Basic Fibroblast Growth Factor, 10 ng/ml	–	allow or induce	inhibits	allow or induce	permits formation of normal levels	permits formation of normal levels	stimulates	permits formation of normal levels	–	–	–	–	–	–	–	–	fibroblast like cells	–
HGF: human recombinant Hepatocyte Growth Factor/Scatter Factor, 20 ng/ml	significant inhibition	allows	completely inhibited	allows	induced at their normal level	significant inhibition	–	–	–	–	–	significant inhibition	allows	expressed	significant inhibition	significant inhibition	large populations of small cells with pronounced nuclei	–
